Assay results taken from patent US6509002B1, “Diagnostic agent for diabetes” (priority 1997, dated 2003).

Experiment: ^13C breath test, oral administration, diabetic vs normal rats
Type: in vivo, rat
Settings: 90 mg/kg orally, Example 38
Method: As test animals, male Sprague-Dawley strain (SD) neonatal rats were purchased from Nippon Charles River K. K. together with their lactating rats. They were bred at 23±2° C. under 55±10% humidity before use. Insulin secretion-deficient type diabetes was generated by administering streptozotocin (STZ) to neonatal rats (“Saibokogaku (Cell Engineering)”, Extra Issue, medical Experiment Manual Series, Strategy for Study of Diabetes, edited by Susumu Seino and Yoshikazu Oka, published by Shujunsha Co., Japan). STZ was subcutaneously administered to 2-day-old rats at a dose of 90 mg/kg. The STZ had been dissolved in a citrate buffer (pH 4.5) and was administered within 5 min after the dissolution. Two days after the administration, blood was collected by cardiac puncture, and the casual blood sugar level of each rat was measured with Terumo […] (blood sugar measurement set). […] However, their fasting blood sugar levels increase only slightly and remain at almost normal levels. According to the standards stipulated by the Japan Diabetes Society (1982), those individuals with a fasting blood sugar level (in venous whole blood) of […] or more are regarded as having diabetes (“[…] (Diabetes Test Manual)”, edited by Yukio […], published by Nanko-Do Co., Japan). Then, those rats with a fasting blood sugar level of less than 120 mg/dl (and with a casual blood sugar level of 250 mg/dl or more) which are not regarded as having diabetes in a fasting blood sugar level test were selected from the above-described rats with insulin secretion-deficient type diabetes and used as a model of light diabetes. Breath tests were carried out according to the method as described in (2)-1 or (2)-2 below on diabetic rats prepared in (1) above (8-10-week-old) and normal rats (8-10-week-old). Δ^13C (‰)=[(^13C t min-^13C 0 min)/^13C std]×1000 […] A blood sample was collected from the tail vein, and its sugar level was determined using Terumo […] (blood sugar measurement set). The exhalation was sucked with a stroke pump 18 (variable stroke pump VS-500; Shibata Scientific Technology) at a rate of 100-300 ml/min and introduced directly into a flow cell in ^13CO2 Analyzer EX-130S (Japan Spectroscopic Co., Ltd.) 20. […] Pure Drier ([…] Pure Inc.) was located between the rat holder and the stroke pump 18 to remove moisture in the exhalation (FIG. 1). […] The data output from the ^13CO2 analyzer 20 were incorporated into a personal computer 21 (Apple Power Macintosh 8500) after AD conversion. Using the data processing software Lab VIEW (National Instruments), data on ten points at every 100 msec were added up and averaged at intervals of 5 sec and then converted into ^13C atom %, Δ^13C (‰) and CO2 gas concentration (%), to thereby perform a continuous measurement ^13C breath test. […] Δ^13C (‰) was calculated by the formula described above.

ethoxy-^13C-methacetin
slope from 12 to 17 min after the administration (diabetic rats): −8.40±7.67 ‰/5 min
slope from 12 to 17 min after the administration (normal rats): 16.05±7.71 ‰/5 min
